# From a melting point compilation (Tetko et al.; mined from patent text by program, amines drawn as free bases though some values may be those of a salt)
row,SMILES,melting point [°C]
1,CC(C)(C)c1ccc(NC(=N)Nc2ccc(C(C)(C)C)cc2)cc1,161 to 162
2,O=C(Nc1n[nH]c(=S)s1)NC(Cc1ccccc1)C(=O)NCc1ccncc1 (centres undefined),208 to 211
3,COc1ccc(-c2cc(C(F)(F)F)nn2-c2ccc(S(N)(=O)=O)cc2)cc1I,220 to 224
4,COC(=O)c1sc(C)c2nc(OC)n(Cc3ccc(-c4ccccc4C#N)cc3)c12,181 to 182
5,CC(=O)Nc1ccc(C2=NNC(=O)C3CC23)cc1 (centres undefined),269 to 270
6,CCCn1cc2c(C3C(=O)Nc4ccc(C#N)cc43)nc(Cl)nc2n1 (centres undefined),> 300
7,CCN1C(=O)C(C(=O)Nc2ccc(Cl)cc2Oc2ccc(Cl)cc2)C(=O)N(C)C1=S (centres undefined),250 to 251
8,Cc1ccc(I)c(CC(=O)N(C)C)c1,47 to 49
9,CCOC(=O)c1sc2ccc(O)c(C=O)c2c1Cl,128 to 130
10,Cc1occc(=O)c1OCc1ccccc1,51 to 52
11,CCCc1nc2c(C)cc(C)nc2n1Cc1ccc(-c2ccccc2-c2c(O)c(=O)c2=O)cc1,182
12,Cc1nc(N2CCN(Cc3ccccc3)C2=N)sc1C(=O)NCc1ccc(F)c(F)c1,140 to 142
13,CCCc1c(OCCCOc2ccc(-c3csc(=S)[nH]3)c(OC)c2CCC)ccc2c1OC(C(=O)O)CC2 (centres undefined),149 to 151
14,CCc1cc(OCc2ccc(-c3ccccc3-c3nnn(C(c4ccccc4)(c4ccccc4)c4ccccc4)n3)cc2)c2c(n1)CCCN2C(=O)C(F)(F)F,93 to 95
15,O=C(CC(=O)C(F)(F)F)Nc1cc(-c2ccccc2Br)n[nH]1,128 to 131
16,CC1(C)CC(=O)N(CC(CS(=O)(=O)c2ccc(-c3ccc(F)cc3)cc2)N(O)C=O)C(=O)C1 (centres undefined),105 to 109
17,COC(=O)c1ccccc1NC(=O)CC(C)=O,79 to 80
18,C=C=CC(C)(O)c1ccc(Br)cc1 (centres undefined),45 to 50
19,c1ccc(-c2ccc3[nH]c4c(ccc5cc[nH]c54)c3c2)cc1,> 250
20,Cc1cc(C)c(/C=C2\C(=O)N(CN3CCN(C)CC3)c3ccccc32)[nH]1,160 to 164
21,Cc1ccc(Oc2ccc(C)cc2C(=O)O)cc1,113 to 115
22,OCCCc1cc(Cl)cc2nc(Cc3ccccc3Cl)oc12,87 to 89
23,CC(=O)SCC(C)NS(=O)(=O)c1c(C)cc(C)cc1C (centres undefined),123 to 126

row,SMILES,melting point [°C]
1,CCOC(=O)N1CCC(Nc2ccc(Cl)cc2C(=O)c2ccccc2F)CC1,112 to 114
2,Fc1ccc2[nH]c(SCC(F)(F)F)nc2c1,136 to 139
3,CCOc1cc2c(cc1OCC)-c1c(C#N)sc(=N)n1CC2,180 to 182
4,O=C(NCc1ccc(Cl)cc1)c1cn2c(CCO)cc3cc(CN4CCOCC4)cc(c1=O)c32,169 to 172
5,Cc1nnc(-c2cc3c(OCCCN4CCC(c5ccc6c(c5)OCO6)CC4)cccc3o2)o1,125 to 127
6,CC(C=Cc1c(C)cc(C)c(C)c1C)=CC=CC(C)=CC(=O)O,201 to 202
7,O=C(O)C=Cc1cccc(Sc2c[nH]c3ccccc23)c1,165 to 167
8,O=C1C2CC=CCN2C(=O)N1c1cc(O)c(Cl)cc1F (centres undefined),195 to 197
9,COc1ccc(C(=O)Nc2c(Cl)cncc2Cl)cc1OCCCCCCCCCCCc1ccccc1,114 to 115
10,Oc1ccc(C2=C(c3ccccc3)CCCc3cc(OC4CCCCO4)ccc32)cc1 (centres undefined),183 to 185
11,O=c1ccc(C(c2ccccc2)c2ccccc2)n[nH]1,161 to 162
12,COCCOc1ccc2c(c1)C1(CO2)C(=O)N(Cc2ccccn2)c2ccccc21 (centres undefined),140 to 142
13,CC(C)c1cc(Oc2c(Cl)cc(CP(=O)(O)O)cc2Cl)ccc1O,178 to 181
14,OCCSc1nc(-c2ccccc2)c2cc(Cl)ccc2n1,124
15,CC(C)c1cccc(C(C)C)c1NC(=O)NCC1(c2ccccc2)CCCCC1,168 to 169
16,CSCCn1c(C)nc2c(N)nc3ccccc3c21,193 to 195
17,CC(O)C(C)(C)NC(=O)[C@@H]1CCCN1C(=O)[C@@H](O)[C@H](Cc1ccccc1)NC(=O)[C@H](CC(N)=O)NC(=O)OCc1ccccc1 (some centres undefined),102 to 104
18,CC(=O)N(C(C)=O)c1ccc2c(c1)C(C(Cl)(Cl)Cl)OC(C(Cl)(Cl)Cl)O2 (centres undefined),147 to 148
19,COc1ccc(CCN2CCC(=C3c4ccccc4CCn4ncnc43)CC2)cc1,129
20,CCOC(=O)CN(CP(=O)(ONN(C)C)ONN(C)C)C(=O)C(F)(F)F,84.5 to 87.5
21,CC(C)C1(C)N=C(c2nc(O)ccc2C(=O)O)NC1=O (centres undefined),201 to 203
22,COc1cccc(CNC(=O)c2nc3scc(CNC(=O)c4ccc(C(=O)O)cc4)c3c(=O)[nH]2)c1,285 to 286
23,CCNC(=O)Cc1cc(Oc2ccc(C(F)(F)F)cc2Cl)ccc1[N+](=O)[O-],189

row,SMILES,melting point [°C]
1,O=C(NC(=O)c1c(F)cccc1F)Nc1ccc(Br)cn1,232 to 235
2,CC(C)C(=O)NC[C@H]1CN(c2ccc3c(c2)CCCc2cnn(C(=O)C(C)C)c2-3)C(=O)O1,75 to 80
3,CC(c1ccncc1F)C(O)(Cn1cncn1)c1ccc(F)cc1F (centres undefined),188 to 189
4,O=Cc1cn(Cc2ccc(OCc3ccccc3)cc2)nc1-c1ccc(F)cc1,97 to 98
5,CCCS(=O)(=O)C(c1cnc(C(N)=O)cc1C)c1c(F)ccc(F)c1F (centres undefined),202 to 204
6,CCCc1c(OCCCCCC(=O)c2cc(C)c(OC)c(OC)c2C)ccc(C(=O)O)c1O,92 to 94
7,NS(=O)(=O)c1ccc(-n2sc3cc(F)ccc3c2=O)cc1,265 to 266
8,Cc1nc(-n2ccc(O)cc2=O)sc1C(=O)NCc1ccc(F)c(F)c1,294 to 296
9,NCc1ccc(N2CC(C(=O)O)OC2=O)cc1 (centres undefined),211 to 212
10,CN(C)CCc1c[nH]c2ccc(C(N)=S)cc12,155
11,O=C1N(Cc2cccc(-c3noc(C(F)(F)F)n3)c2)c2ccccc2C12COc1cc3c(cc12)CCO3 (centres undefined),182 to 188
12,CCOCC1Cc2cc(S(=O)(=O)N(C)C)c(Cl)c(Cl)c2O1 (centres undefined),91 to 92
13,Cc1ccc(-c2ccc3c(c2)C=C(C(=O)OC(C)(C)C)CO3)cc1,80 to 82
14,O=C(N1CCOCC1)N1CCN(Cc2ccc3c(c2)-c2[nH]nc(-c4ccsc4)c2C3)CC1,188 to 190
15,Cn1c(=O)n(Cc2ccc(C#N)cc2)c(=O)c2nc(-c3ccc(/C=C/C(=O)O)cc3)[nH]c21,> 300
16,COc1cc2c(cc1OC)-c1cc(=Nc3c(C)cc(C)cc3C)n(C)c(=O)n1CC2,151 to 152
17,COc1ccc2oc(CC(=O)O)c(C)c2c1,113 to 114
18,CC(C)c1nc(CO)c(CO)[nH]1,200 to 201
19,CCCN(CCCc1c[nH]c2ccc(F)cc12)C1COc2c(C(N)=O)ccc(F)c2C1 (centres undefined),123
20,COC(=O)Nc1nc(C)c(-c2nc3ccccc3c(=O)n2-c2ccc(C(C)=O)cc2)s1,232 to 234
21,C=CCn1c(=O)c2cnc(Nc3ccc(N4CCN(C)CC4)cc3)nc2n(C(C)C)c1=O,176 to 177
22,COc1ccc(OC(C)c2ccnc3ncnn23)cc1 (centres undefined),112 to 114
23,CCOC(=O)CCCC(=O)c1cn(-c2cccnc2)c2ccccc12,95 to 97
